Assays:
[1] = target: T1, Purine nucleoside phosphorylase (Homo sapiens, UniProt P00491)
T1 sequence (P00491 whole entry): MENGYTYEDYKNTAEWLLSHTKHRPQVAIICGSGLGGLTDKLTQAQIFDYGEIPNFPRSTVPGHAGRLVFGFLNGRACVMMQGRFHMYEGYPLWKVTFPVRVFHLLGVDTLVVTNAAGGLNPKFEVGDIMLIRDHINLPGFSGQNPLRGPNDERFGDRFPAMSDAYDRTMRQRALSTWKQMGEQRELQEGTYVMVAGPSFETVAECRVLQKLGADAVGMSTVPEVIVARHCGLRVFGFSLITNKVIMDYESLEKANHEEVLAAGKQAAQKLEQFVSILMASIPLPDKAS

[2] = target: T2, Purine nucleoside phosphorylase (Homo sapiens) (UniProt P00491); assay: Inhibitory activity against Purine nucleoside phosphorylase evaluated by radiochemical assay concentration <300 uM; format: tissue-based
T2 sequence (whole entry): T1 sequence (P00491 whole entry)

MOLT-4 = assay: cells; settings: Homo sapiens
[3] = target: T2, Purine nucleoside phosphorylase (Homo sapiens); assay: Inhibitory activity against Purine nucleoside phosphorylase evaluated by radiochemical assay <300 uM; format: tissue-based; settings: Urine
[4] = target: T2, Purine nucleoside phosphorylase (Homo sapiens); assay: Inhibitory activity against Purine nucleoside phosphorylase evaluated by radiochemical assay at <300 uM; format: tissue-based; settings: Urine
[5] = target: T2, Purine nucleoside phosphorylase (Homo sapiens); assay: Inhibitory activity against Purine nucleoside phosphorylase evaluated by radiochemical assay; format: tissue-based; settings: Urine; concentration not given here

IC50 [1] [µM] | IC50 (MOLT-4) [µM] | SMILES | also measured
> 75 | – | CSc1nc(O)c2nc(N)nc-2n1Cc1ccccc1 | –
– | – | Oc1ncn(Cc2ccc(Cl)c(Cl)c2)c2ncnc1-2 | inhibition [2]: 36.9%
– | 0.82 | Nc1nc(O)c2nc(N)n(Cc3cccs3)c2n1 | –
5.2 | 42.5 | Nc1nc2c(O)nc(N)n(Cc3ccco3)c-2n1 | –
112 | 204 | Oc1ncn(Cc2ccccc2)c2ncnc1-2 | inhibition [3]: 81%
– | – | CSc1nc(O)c2ncnc-2n1Cc1ccccc1 | inhibition [2]: 23.3%
– | – | Oc1nc(S)n(CCc2ccccc2)c2ncnc1-2 | inhibition [4]: 10.9%
4.6 | > 25 | Nc1nc2c(O)nc(N)n(Cc3cccs3)c-2n1 | –
8.9 | – | COc1ccc(Cn2c(N)nc(O)c3nc(N)nc2-3)cc1 | –
– | 1.47 | Nc1nc(O)c2nc(N)n(Cc3ccco3)c2n1 | –
– | – | Oc1ncn(CCc2ccccc2)c2ncnc1-2 | inhibition [2]: 26.8%
13.4 | 28.6 | O=c1[nH]c(=O)n(Cc2ccccc2)c2nc[nH]c12 | –
– | – | Oc1nc(S)n(Cc2ccccc2)c2ncnc1-2 | inhibition [5]: 78.3%
95 | – | Nc1[nH]c[n+](Cc2ccccc2)c2ncnc1-2 | –
0.47 | 0.77 | Nc1nc(O)c2nc(N)n(Cc3ccccc3)c2n1 | –
– | – | O=[N+]([O-])c1ccc(Cn2cnc(O)c3ncnc2-3)cc1 | inhibition [2]: 13.1%
29.6 | 35 | Nc1nc(O)c2ncn(Cc3ccccc3)c2n1 | –
> 150 | – | Nc1nc(O)c2nc(NC=O)nc-2n1Cc1ccccc1 | –
– | – | N#Cc1ccc(Cn2cnc(O)c3ncnc2-3)cc1 | inhibition [2]: 22.2%
131 | – | Nc1nc2c(S)ncn(Cc3ccccc3)c-2n1 | –

Source: ChEMBL document CHEMBL1125439, “Inhibitors of human purine nucleoside phosphorylase. Synthesis and biological activities of 8-amino-3-benzylhypoxanthine and related analogues” (J Med Chem, 1992)
